Results: ChEMBL document CHEMBL1201862, “PubChem BioAssay data set” (2004)
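All cell lines were grown in 96-well plates and treated with compound for 48 hours. GI50 is the concentration that inhibits growth by half.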 Active and inactive are the calls of the source. Cut-off read from the data, not from the text of the source: active = GI50 up to about 1.1 µM and inactive = higher.

Legend:
Assay in all cases: DTP human tumour cell line panel, 48 h
NCI-H460 = tested on: NCI-H460
TK-10 = tested on: TK-10
DMS-114 = tested on: DMS-114
SNB-19 = tested on: SNB-19
OVCAR-3 = tested on: OVCAR-3
SF-295 = tested on: SF-295
NCI-H226 = tested on: NCI-H226
K562 = tested on: K562
SW-620 = tested on: SW-620
HCT-116 = tested on: HCT-116
XF498 = tested on: XF498
DLD-1 = tested on: DLD-1
HCT-15 = tested on: HCT-15
NCI-H23 = tested on: NCI-H23
SK-OV-3 = tested on: SK-OV-3
U-251 = tested on: U-251
M19-MEL = tested on: M19-MEL
786-0 = tested on: 786-0
NCI-H522 = tested on: NCI-H522
LOX IMVI = tested on: LOX IMVI
A549 = tested on: A549
KM12 = tested on: KM12
M14 = tested on: M14
Malme-3M = tested on: Malme-3M
OVCAR-4 = tested on: OVCAR-4
SN12C = tested on: SN12C
ACHN = tested on: ACHN
MOLT-4 = tested on: MOLT-4
UO-31 = tested on: UO-31
SK-MEL-2 = tested on: SK-MEL-2
CAKI-1 = tested on: CAKI-1
LXFL 529 = tested on: LXFL 529
IGROV-1 = tested on: IGROV-1
SF-268 = tested on: SF-268
HOP-18 = tested on: HOP-18
SK-MEL-5 = tested on: SK-MEL-5
HL-60 = tested on: HL-60
DMS-273 = tested on: DMS-273
EKVX = tested on: EKVX
OVCAR-5 = tested on: OVCAR-5
KM-20L2 = tested on: KM-20L2
CCRF-CEM = tested on: CCRF-CEM
UACC-257 = tested on: UACC-257
SNB-78 = tested on: SNB-78
RPMI-8226 = tested on: RPMI-8226
HCC 2998 = tested on: HCC 2998
OVCAR-8 = tested on: OVCAR-8
COLO 205 = tested on: COLO 205
SF-539 = tested on: SF-539
A498 = tested on: A498
UACC-62 = tested on: UACC-62
HT-29 = tested on: HT-29
MCF7 = tested on: MCF7
HOP-92 = tested on: HOP-92
RXF 393 = tested on: RXF 393
SK-MEL-28 = tested on: SK-MEL-28
SNB-75 = tested on: SNB-75
NCI/ADR-RES = tested on: NCI/ADR-RES
HOP-62 = tested on: HOP-62
SR = tested on: SR

## Cc1cc(Cl)ccc1NC(=O)CCCC(=O)C1CCCC1=O (stereo not given)
NCI-H460
  GI50: > 100 µM (inactive)
TK-10
  GI50: > 100 µM (inactive)
DMS-114
  GI50: > 100 µM (inactive)
SNB-19
  GI50: > 100 µM (inactive)
OVCAR-3
  GI50: > 100 µM (inactive)
SF-295
  GI50: > 100 µM (inactive)
NCI-H226
  GI50: > 100 µM (inactive)
K562
  GI50: > 100 µM (inactive)
SW-620
  GI50: > 100 µM (inactive)
HCT-116
  GI50: > 100 µM (inactive)
XF498
  GI50: > 100 µM (inactive)
DLD-1
  GI50: > 100 µM (inactive)
HCT-15
  GI50: > 100 µM
NCI-H23
  GI50: > 100 µM (inactive)
SK-OV-3
  GI50: > 100 µM (inactive)
U-251
  GI50: > 100 µM (inactive)
M19-MEL
  GI50: > 100 µM (inactive)
786-0
  GI50: > 100 µM (inactive)
NCI-H522
  GI50: > 100 µM (inactive)
LOX IMVI
  GI50: > 100 µM (inactive)
A549
  GI50: > 100 µM (inactive)
KM12
  GI50: > 100 µM (inactive)
M14
  GI50: > 100 µM (inactive)
Malme-3M
  GI50: > 100 µM (inactive)
OVCAR-4
  GI50: > 100 µM (inactive)
SN12C
  GI50: > 100 µM (inactive)
ACHN
  GI50: > 100 µM (inactive)
MOLT-4
  GI50: > 100 µM (inactive)
UO-31
  GI50: > 100 µM (inactive)
SK-MEL-2
  GI50: > 100 µM (inactive)
CAKI-1
  GI50: > 100 µM (inactive)
LXFL 529
  GI50: > 100 µM (inactive)
IGROV-1
  GI50: > 100 µM (inactive)
SF-268
  GI50: > 100 µM (inactive)
HOP-18
  GI50: > 100 µM (inactive)
SK-MEL-5
  GI50: > 100 µM (inactive)
HL-60
  GI50: > 100 µM (inactive)
DMS-273
  GI50: > 100 µM (inactive)
EKVX
  GI50: > 100 µM (inactive)
OVCAR-5
  GI50: > 100 µM (inactive)
KM-20L2
  GI50: > 100 µM (inactive)
CCRF-CEM
  GI50: > 100 µM (inactive)
UACC-257
  GI50: > 100 µM (inactive)
SNB-78
  GI50: > 100 µM (inactive)
RPMI-8226
  GI50: > 100 µM (inactive)
HCC 2998
  GI50: > 100 µM (inactive)
OVCAR-8
  GI50: > 100 µM (inactive)
COLO 205
  GI50: > 100 µM (inactive)
SF-539
  GI50: > 100 µM (inactive)
A498
  GI50: > 100 µM (inactive)
UACC-62
  GI50: > 100 µM (inactive)
HT-29
  GI50: > 100 µM (inactive)

## CCOC(=O)C1=C(C(C)=O)CSC(c2ccccc2)=N1
NCI-H460
  GI50: > 100 µM (inactive)
MCF7
  GI50: 40.7 µM (inactive)
DMS-114
  GI50: > 100 µM (inactive)
SNB-19
  GI50: > 100 µM (inactive)
OVCAR-3
  GI50: > 100 µM (inactive)
SF-295
  GI50: > 100 µM (inactive)
NCI-H226
  GI50: > 89.7 µM (inactive)
K562
  GI50: > 100 µM (inactive)
SW-620
  GI50: > 100 µM (inactive)
HCT-116
  GI50: > 100 µM (inactive)
HOP-92
  GI50: > 100 µM (inactive)
XF498
  GI50: > 100 µM (inactive)
DLD-1
  GI50: > 100 µM (inactive)
HCT-15
  GI50: > 100 µM
NCI-H23
  GI50: 98.4 µM (inactive)
SK-OV-3
  GI50: > 100 µM (inactive)
U-251
  GI50: > 100 µM (inactive)
M19-MEL
  GI50: > 100 µM (inactive)
NCI-H522
  GI50: > 100 µM (inactive)
LOX IMVI
  GI50: > 100 µM (inactive)
A549
  GI50: > 100 µM (inactive)
KM12
  GI50: > 100 µM (inactive)
Malme-3M
  GI50: > 100 µM (inactive)
OVCAR-4
  GI50: > 100 µM (inactive)
RXF 393
  GI50: > 100 µM (inactive)
SN12C
  GI50: > 100 µM (inactive)
MOLT-4
  GI50: > 100 µM (inactive)
UO-31
  GI50: 97.9 µM (inactive)
SK-MEL-2
  GI50: > 100 µM (inactive)
CAKI-1
  GI50: > 100 µM (inactive)
IGROV-1
  GI50: > 100 µM (inactive)
SF-268
  GI50: > 100 µM (inactive)
SK-MEL-28
  GI50: > 100 µM (inactive)
HOP-18
  GI50: > 100 µM (inactive)
SK-MEL-5
  GI50: > 100 µM (inactive)
HL-60
  GI50: > 100 µM (inactive)
DMS-273
  GI50: > 100 µM (inactive)
EKVX
  GI50: > 100 µM (inactive)
OVCAR-5
  GI50: > 100 µM (inactive)
KM-20L2
  GI50: > 100 µM (inactive)
CCRF-CEM
  GI50: > 100 µM (inactive)
UACC-257
  GI50: > 100 µM (inactive)
SNB-78
  GI50: > 63.2 µM (inactive)
SNB-75
  GI50: > 100 µM (inactive)
RPMI-8226
  GI50: > 100 µM (inactive)
HCC 2998
  GI50: > 100 µM (inactive)
OVCAR-8
  GI50: > 100 µM (inactive)
COLO 205
  GI50: > 100 µM (inactive)
SF-539
  GI50: > 100 µM (inactive)
A498
  GI50: > 100 µM (inactive)
NCI/ADR-RES
  GI50: > 100 µM (inactive)
UACC-62
  GI50: > 100 µM (inactive)
HT-29
  GI50: > 100 µM (inactive)

## CC(=O)Nc1ccc(/C=C(\NC(=O)c2ccccc2)C(=O)NNS(=O)(=O)c2ccc(C)cc2)cc1
NCI-H460
  GI50: 50.2 µM (inactive)
TK-10
  GI50: > 100 µM (inactive)
SNB-19
  GI50: > 100 µM (inactive)
OVCAR-3
  GI50: > 100 µM (inactive)
SF-295
  GI50: > 100 µM (inactive)
NCI-H226
  GI50: > 100 µM (inactive)
K562
  GI50: > 100 µM (inactive)
HOP-62
  GI50: > 100 µM (inactive)
HCT-116
  GI50: > 100 µM (inactive)
HOP-92
  GI50: > 100 µM (inactive)
XF498
  GI50: > 100 µM (inactive)
DLD-1
  GI50: 33 µM (inactive)
HCT-15
  GI50: 18.4 µM
NCI-H23
  GI50: > 100 µM (inactive)
SK-OV-3
  GI50: > 100 µM (inactive)
SR
  GI50: 20.1 µM (inactive)
U-251
  GI50: > 100 µM (inactive)
M19-MEL
  GI50: > 100 µM (inactive)
786-0
  GI50: > 10 µM (inactive)
NCI-H522
  GI50: > 100 µM (inactive)
LOX IMVI
  GI50: 16.4 µM (inactive)
A549
  GI50: > 100 µM (inactive)
KM12
  GI50: > 100 µM (inactive)
M14
  GI50: > 100 µM (inactive)
Malme-3M
  GI50: > 100 µM (inactive)
OVCAR-4
  GI50: > 100 µM (inactive)
RXF 393
  GI50: > 100 µM (inactive)
SN12C
  GI50: > 100 µM (inactive)
ACHN
  GI50: > 100 µM (inactive)
MOLT-4
  GI50: > 100 µM (inactive)
UO-31
  GI50: > 100 µM (inactive)
SK-MEL-2
  GI50: > 100 µM (inactive)
CAKI-1
  GI50: > 100 µM (inactive)
LXFL 529
  GI50: > 100 µM (inactive)
IGROV-1
  GI50: > 100 µM (inactive)
SF-268
  GI50: 78.9 µM (inactive)
SK-MEL-28
  GI50: > 100 µM (inactive)
HOP-18
  GI50: > 100 µM (inactive)
SK-MEL-5
  GI50: > 100 µM (inactive)
HL-60
  GI50: > 100 µM (inactive)
DMS-273
  GI50: 18.2 µM (inactive)
EKVX
  GI50: > 100 µM (inactive)
OVCAR-5
  GI50: > 100 µM (inactive)
KM-20L2
  GI50: > 100 µM (inactive)
CCRF-CEM
  GI50: > 100 µM (inactive)
UACC-257
  GI50: > 100 µM (inactive)
SNB-78
  GI50: > 100 µM (inactive)
SNB-75
  GI50: > 100 µM (inactive)
RPMI-8226
  GI50: 22.5 µM (inactive)
HCC 2998
  GI50: > 100 µM (inactive)
OVCAR-8
  GI50: > 100 µM (inactive)
COLO 205
  GI50: 25.8 µM (inactive)
SF-539
  GI50: > 100 µM (inactive)
UACC-62
  GI50: > 100 µM (inactive)
HT-29
  GI50: > 100 µM (inactive)
